Laboratory results: patent US8927730B2, “Intramolecular hydrogen-bonded nitric oxide synthase inhibitors” (Northwestern University, priority 2010, dated 2015)

Legend:
rat nNOS = rat nNOS (Rattus norvegicus (Rat), UniProt P29476); experiment: In vitro purified enzyme assay (hemoglobin capture), nNOS; format: biochemical; conditions: for IC50: purified enzyme assay; for Ki: calculated from directly measured IC50 (Cheng-Prusoff), rat nNOS
Procedure: (§1) The three NOS isoforms, rat nNOS, murine iNOS and bovine eNOS were recombinant enzymes overexpressed in E. coli and purified as reported in the literature. (See, e.g., example 51 of the aforementioned incorporated '790 patent and the references cited therein.) The hemoglobin capture was used to measure nitric oxide production. (See, Hevel, J. M. and Marietta, M. A. Nitric Oxide Synthase Assays. Methods Enzymol. 1994, 133, 250-258.) Briefly, the assay was run at 37° C. in 100 mM HEPES buffer (10% glycerol; pH 7.4) in the presence of 10 μM L-arginine. The following NOS cofactors were also included in the assay: 100 μM NADPH, 10 μM tetrahydrobiopterin, 1 mM CaCl2, 11.6 μg/mL calmodulin and 3.0 μM oxyhemoglobin. For iNOS, calmodulin and CaCl2 were omitted. The assay was run in a high throughput manner, using the Synergry 4 by BioTek, at the Northwestern University HighThroughput Analysis Facility. The assay was run in triplicate; 48 100 uL reactions were ran at once in a 96 well plate. The addition of hemoglobin and NOS were automated with a maximum of a 30 second delay before the reactions could be recorded at 401 nm. The absorbance increase at 401 nm is due to the formation of NO via the conversion of oxyhemoglobin to methemoglobin.
(§2) The IC50 values were obtained using non-linear regression in GraphPad Prism5 software.

[1] = biological target: HEK293t cells stably transfected with rat nNOS (Rattus norvegicus (Rat), UniProt P29476); experiment: nNOS cell-based assay (nitrite production, Griess reagent); conditions: for Relationship (fold higher in cells): cell-based IC50 versus in vitro IC50; for IC50: inhibition of nitric oxide production in HEK293t cells stably expressing nNOS
Procedure: HEK293t cells stably transfected with rat nNOS were cultured as previously described, and the nNOS inhibition assay was performed as previously reported (Fang, J.; Silverman, R. B. A cellular model for screening neuronal nitric oxide synthase inhibitors. Analytical Biochemistry 2009, 390, 74-78), with the following modifications: assays were performed in 96-well plates with a total volume of 100 μL, and 10 μM A23187 (Sigma Aldrich, St Louis, Mo., USA) in 50% DMSO was used in place of 5 μM. Nine concentrations of each inhibitor were tested, in at least triplicate wells. All inhibitors were assayed within the same experiment to assure consistencies in cell concentration and passage number. The entire assay was repeated at least twice for each inhibitor, and the IC50 values averaged. After 6 hours of activation (in the presence or absence of inhibitor, which was added 30 minutes before activation) 50 μL aliquots of the media were removed and nitrite production was quantified using Griess reagent. (See, Hevel, J. M.; White, K. A.; Marietta, M. Purification of the inducible murine macrophage nitric oxide synthase. Identification as a flavoprotein. J. Biol. Chem. 1991, 266, 22789-22791.)

[2] = cited from earlier work
[3] = animal test results; cited from earlier work
murine iNOS = murine iNOS (Mus musculus (Mouse), UniProt P29477); experiment: In vitro purified enzyme assay (hemoglobin capture), iNOS; format: biochemical; conditions: for Ki: calculated from directly measured IC50 (Cheng-Prusoff), murine iNOS; for selectivity n/i: ratio of Ki (iNOS) to Ki (nNOS)
Procedure: as §1, §2

bovine eNOS = bovine eNOS (Bos taurus (Bovine), UniProt P29473); experiment: In vitro purified enzyme assay (hemoglobin capture), eNOS; format: biochemical; conditions: for Ki: calculated from directly measured IC50 (Cheng-Prusoff), bovine eNOS; for selectivity n/e: ratio of Ki (eNOS) to Ki (nNOS)
Procedure: as §1, §2

Row | IC50 (rat nNOS) | Relationship (fold higher in cells) [1] | IC50 [1] | Ki (rat nNOS) | Ki (murine iNOS) | selectivity n/i (murine iNOS) | Ki (bovine eNOS) | selectivity n/e (bovine eNOS) | SMILES | pKa [2] | BBB penetration [3]
1 | 3.6 µM | 33 x | 120 µM | 0.41 µM | 44 µM | 105 | 40 µM | 98 | Cc1cc(N)nc(C[C@H]2CNC[C@H]2OCCNCc2ccccc2F)c1 [Compound 3a, 6-(((3S,4S)-4-(2-(2-Fluorobenzylamino)ethoxy)pyrrolidin-3-yl)methyl)-4-methylpyridin-2-amine] | – | –
2 | 7.1 µM | 27 x | 190 µM | 0.82 µM | 114 µM | 139 | 77 µM | 93 | COc1ccccc1CNCCO[C@@H]1CNC[C@@H]1Cc1cc(C)cc(N)n1 [Compound 3b, 6-(((3S,4S)-4-(2-(2-Methoxybenzylamino)ethoxy)pyrrolidin-3-yl)methyl)-4-methylpyridin-2-amine] | – | –
3 | 3.5 µM | 150 x | 520 µM | 0.39 µM | 57 µM | 143 | 37 µM | 93 | Cc1cc(N)nc(C[C@H]2CNC[C@H]2OCCNCc2ccccc2O)c1 [Compound 3c, 2-((2-((3S,4S)-4-((6-Amino-4-methylpyridin-2-yl)methyl)pyrrolidin-3-yloxy)ethylamino)methyl)phenol] | – | –
4 | 3.4 µM | 123 x | 420 µM | 0.4 µM | 36 µM | 92 | 66 µM | 169 | Cc1cc(N)nc(C[C@H]2CNC[C@H]2OCCNCc2ccco2)c1 [Compound 3d, 6-(((3S,4S)-4-(2-(Furan-2-ylmethylamino)ethoxy)pyrrolidin-3-yl)methyl)-4-methylpyridin-2-amine] | – | –

The next lines start with the compound.

Row | SMILES | IC50 (rat nNOS) | Relationship (fold higher in cells) [1] | IC50 [1] | Ki (rat nNOS) | Ki (murine iNOS) | selectivity n/i (murine iNOS) | Ki (bovine eNOS) | selectivity n/e (bovine eNOS) | pKa [2] | BBB penetration [3]
5 | CNc1cc(N)nc(NC)c1.Cl [Aminopyridine, 2-amino-4,6-dimethylaminopyridine hydrochloride, reference compound] | 0.05 µM | 500x | – | – | – | – | – | – | ~7 | –
6 | C=CCO[C@@H]1CN(C(=O)OC(C)(C)C)C[C@@H]1Cc1cc(C)cc(N(C(=O)OC(C)(C)C)C(=O)OC(C)(C)C)n1 [Compound 1, reference compound] | 0.45 µM | 722 x | 325 µM | – | – | – | – | – | – | do not penetrate the BBB
7 | Cc1cc(C[C@H]2CN(C(=O)OC(C)(C)C)C[C@H]2OCC=O)nc(N(C(=O)OC(C)(C)C)C(=O)OC(C)(C)C)c1 [Compound 2, reference compound] | 1 µM | 125 x | 125 µM | – | – | – | – | – | – | do not penetrate the BBB
